Source: patent publication US20040197407A1, “Methods and dosage forms with modified layer geometry” (priority 2003, published 2004)
Structures can show the parent of a compound that is named as a salt.

Experiments:
[1] = FIG. 6
Description: FIG. 6 illustrates blood plasma concentrations at various times achieved through various means of delivery. This figure illustrates the time necessary to achieve a particular blood plasma concentration.

[2] = in vivo; cited from earlier work
[3] = in vivo; cited from earlier work; remark: listed apart in the source
[4] = cited from earlier work

colonic absorption [1]	SMILES	reported side effects [2]	half-life [3]	solubility in alcohol ([4]; alcohol)	solubility in hydrocarbon solvents ([4]; hydrocarbon solvents)	solubility in isopropanol ([4]; isopropanol)	solubility in water ([4]; water)
colonic absorption	CN(C)CCC=C1c2ccccc2C=Cc2ccccc21 [cyclobenzaprine]	sedation and dry mouth	24 to 72 h				
	CN(C)CCC=C1c2ccccc2C=Cc2ccccc21 [Cyclobenzaprine hydrochloride, cyclobenzaprine hydrochloride]			freely soluble	insoluble	sparingly soluble	freely soluble
